Data: US7148210B2, “Method of treating bone metastasis” (Trustees of Dartmouth College, priority 2002, dated 2006)
Where two headings read alike, the source gives them in different places. Marks after values point to notes of the source that are not given here.

Assays:
[1] = ATP i.v. infusion dose escalation to maximally tolerated dose (present disclosure); type: in vivo, human; settings: duration 8 hours
From the text: (§1) This regime was maintained until the maximally tolerated dose (MTD) was reached.
(§2) Patients were consenting adult patients with histologically/cytologically confirmed advanced hormone-refractory prostate cancer not curable by conventional therapies that fulfilled the standard phase 1 liver, renal and Karnofsky performance eligibility requirements. The patients also had to meet one of the two following requirements. A positive bone scan and/or imaging study for bone metastasis with accompanying bone pain had to be present with rising PSA values, identified in three consecutive PSA observations, following definitive surgery and/or radiation therapy and anti-androgen hormonal therapy. PSA levels (>10 ng/ml) and a positive bone scan and bone pain at time of initial diagnosis.
Average patient age was between 50 and 85 years of age. Patients were excluded if they met the standard phase 1 respiratory and cardiac exclusion criteria.
ATP infusion therapy was as described above.

[2] = system: hormone-refractory prostate adenocarcinoma (HRPA); assay: Blood PSA response in hormone-refractory prostate cancer patients with bone metastasis; type: in vivo, human
Procedure: Treatment of hormone-refractory prostate adenocarcinoma (HRPA) patients presents a complex combination of tumor and pain management. […] HRPA outcomes and PSA measurements were determined pre- and post-treatment within 25–45 days after Sm-153 administration.
[formula] PSA decreases of greater than 50% from baseline are associated with improved survivals in prostate cancer patients [Zyskowski, et al. (2001) Australas Radiol. 45:39; Kelly, et al. (1993) J. Clin. Oncol. 11:607).
The change in PSA was expressed as a ratio rather than a strict difference due to assumed relative changes. Furthermore, assumed multiplicative error provided that the variation of PSA levels increased with an increase in PSA levels. The combination of these two assumptions provided that the PSA responses be compared on the log scale. Furthermore, it is known that the log scale stabilizes the variance (Rosner, In: Fundamentals of Bio-statistics, 5th edition, Pacific Grove: Duxbury) and it has been observed that the variation in PSA among patients with prostate cancer is higher than in healthy (disease-free) controls.
This regime was maintained until the maximally tolerated dose (MTD) was reached. […]

[3] = Monitoring of patients for adverse effects / tolerability; type: in vivo, human
From the text: as §1

bone metastases = assay: Clinical outcome in patients (bone pain, energy, bone scan); type: in vivo, human; settings: Patient 1
From the text: as §2

HRPA cells = settings: preclinical observations, Janssens and Boeynaems (2001); Fang et al. (1992); cited from earlier work
[4] = cited from earlier work

Q: For `Nc1ncnc2c1ncn2[C@@H]1O[C@H](COP(=O)(O)OP(=O)(O)OP(=O)(O)O)[C@@H](O)[C@H]1O` [ATP, Adenosine triphosphate], which MTD ([1]; Study 2, present disclosure) is on record?
A: The MTD was 75 µg/kg/min.

Q: And the MTD ([1]; Study 3, present disclosure)?
A: The MTD was 100 µg/kg/min.

Q: What about the “rate of PSA level increase during ATP treatments” value ([2]; Patient 1, eight weekly i.v. ATP infusions, no Sm-153, PSA at start 2732 ng/ml) of the same compound?
A: The value was “stabilized”.

Q: And the “PSA levels during ATP treatment” value ([2]; three advanced prostate cancer patients, i.v. infused ATP)?
A: The value was “stabilized”.

Q: And the tolerability ([3]; 8-hour infusion once weekly at 50 up to 100 μg/kg/minute)?
A: Its tolerability is “well tolerated by most patients”.

Q: What about the “hematocrit NADIR” value ([3]; Patient 1, 33% at start of trial, transfusion given at nadir) of the same compound?
A: The value was 25%.

Q: What about the “side effects of ATP infusion” value ([3]; Patient 1, eight weekly i.v. infusions) of the same compound?
A: The value was “minor side effects”.

Q: And the “energy levels, exercise and activity” value (bone metastases; eighth week, 100 μg/kg/min × 8 hours)?
A: The value was “improved energy levels at home and improved exercise and activity”.

Q: What about the bone pain (bone metastases; end of the eight weeks of ATP therapy) of the same compound?
A: Its bone pain is “continued to have bone pain”.

Q: What about the “effect on HRPA cells in vitro” value (HRPA cells) of the same compound?
A: The value was “inhibits”.

Q: What about the MTD ([4]; Study 1, Gaba (1990), incremental i.v. dose levels, each infusion 20 min.) of the same compound?
A: The MTD was 125* μg/kg/min.

Q: What about the MTD ([4]; Study 4, Haskell et al. (1998), duration 96 hours) of the same compound?
A: The MTD was 50 µg/kg/min.

Q: And the MTD ([4]; Study 5, Agteresch et al. (2000), infused over 30 hours, start 20 μg/kg/min, increments of 10 every 30 minutes)?
A: Its MTD is 65 to 75 µg/kg/min.

Q: And the MTD ([4]; Study 6, Haskell et al. (1996), duration 96 hours)?
A: The MTD was 75 µg/kg/min.
